Structures are written as SMILES. Values joined by “and” are separate entries in the source; they are usually repeats but may differ in a detail not shown here. Equal entries are not always repeated.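 Dose response: 5 concentrations. Exposure: 48 h. Format: 96-well plates. Endpoint: linear interpolation; highest concentration if not reached. GI50 marks 50% less growth. At the TGI there is no net growth.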

In the first assay the test system is HCT-116 colon. The experiment in a line: inhibition of tumour cell growth, NCI panel, 48 h.
For `CCOc1ccccc1N1C(=O)C(=O)C(c2nc3ccccc3o2)C(=O)C1=O`, the TGI was greater than 100 µM.
The same measure, in the same setting: the figure for `CCS(CC)(CC)CC1CCCC2=CCC(P(=O)(c3ccccc3)c3ccccc3)CC21` (stereo unspecified) is 20.7 µM.

The next assay deals with MDA-MB-435. The experiment in a line: inhibition of tumour cell growth, NCI panel, 48 h.
`COc1c(C)c2c(c(O)c1C/C=C(\C)CCC(=O)O)C(=O)OC2`: the GI50 was 0.32 µM and the TGI is greater than 100 µM.
In the same order, the values of `Cc1cc(O)c(C(C)C)cc1S(=O)(=O)O` (tested in a mixture with another compound) are 0.171 µM and 0.464 µM.
With `COc1cc(C[C@H]2c3cc(OC)c(OC)cc3CCN2C)c(Oc2cc3c(cc2OC)-c2c(OC)c(OC)cc4c2[C@H](C3)N(C)CC4)cc1OC`, the TGI came out at 12.5 µM.
Consider `COc1cc(OC(=O)c2ccccc2)cc2c1C(=O)C=CC2=O`, for which the TGI worked out at 12 µM.
`CC1CCC(NC(=O)N(CCCl)N=O)CC1` (stereo unspecified) gave a TGI of 65.9 µM.

A further assay deals with OVCAR-5 ovarian. The assay is described as follows: inhibition of tumour cell growth, NCI panel, 48 h.
Turning to `COc1c(C)c2c(c(O)c1C/C=C(\C)CCC(=O)O)C(=O)OC2`, the GI50 was 1.79 µM and the TGI was greater than 100 µM.
For the compound `Cc1cc(O)c(C(C)C)cc1S(=O)(=O)O` (tested in a mixture with another compound), the GI50 was 0.727 µM and the TGI was 7.54 µM.
`O=[N+]([O-])c1cc(C(F)(F)F)cc([N+](=O)[O-])c1CCl` came in with a TGI of 10.1 µM.
For the compound `COc1cc(C[C@H]2c3cc(OC)c(OC)cc3CCN2C)c(Oc2cc3c(cc2OC)-c2c(OC)c(OC)cc4c2[C@H](C3)N(C)CC4)cc1OC`, the GI50 is 18 µM; the TGI is 33.6 µM and 32.6 µM.
`CCOC(=O)N1CCN(C=S)CC1` gave a TGI greater than 100 µM.
On to `CCc1cc(C(=O)OC)cn1C(=N)c1ccc(Cl)cc1`, for which the TGI was greater than 100 µM.
In the case of `COc1cc(OC(=O)c2ccccc2)cc2c1C(=O)C=CC2=O`, the TGI is 54.5 µM.
`Cc1cc(=O)n(-c2ccccc2C)c(C)n1` came in with a TGI greater than 100 µM.
In the case of `COc1cc2c(c(OC)c1OC)-c1ccc(SC)c(=O)cc1C(CO)C2` (stereo unspecified), the GI50 is greater than 100 µM and the TGI was greater than 100 µM.
Consider `CC1CCC(NC(=O)N(CCCl)N=O)CC1` (stereo unspecified), for which the TGI turned out to be 105 µM.
Turning to `CCC[CH2][Sn]1([CH2]CCC)[O]C(=O)c2cccnc2[O]1`, the GI50 is 11.9 µM and the TGI is 24.2 µM.
For the compound `CCOc1ccccc1N1C(=O)C(=O)C(c2nc3ccccc3o2)C(=O)C1=O`, the TGI was greater than 100 µM.
Consider `CCS(CC)(CC)CC1CCCC2=CCC(P(=O)(c3ccccc3)c3ccccc3)CC21` (stereo unspecified), for which the TGI amounted to 30.4 µM.

Another assay deals with SNB-19 CNS. The experiment in a line: inhibition of tumour cell growth, NCI panel, 48 h.
Consider `COc1c(C)c2c(c(O)c1C/C=C(\C)CCC(=O)O)C(=O)OC2`, for which the GI50 was 0.286 µM and the TGI is greater than 100 µM.
As for `Cc1cc(O)c(C(C)C)cc1S(=O)(=O)O` (tested in a mixture with another compound), the GI50 is 0.423 µM.
For `O=[N+]([O-])c1cc(C(F)(F)F)cc([N+](=O)[O-])c1CCl`, the TGI was 19.9 µM.
Turning to `COc1cc(C[C@H]2c3cc(OC)c(OC)cc3CCN2C)c(Oc2cc3c(cc2OC)-c2c(OC)c(OC)cc4c2[C@H](C3)N(C)CC4)cc1OC`, the GI50 is 20.3 µM; the TGI is 41.8 µM and 54 µM.
With `CCOC(=O)N1CCN(C=S)CC1`, the TGI was greater than 100 µM.
Same read-out and setting: the value for `CCc1cc(C(=O)OC)cn1C(=N)c1ccc(Cl)cc1` was greater than 100 µM; that for `COc1cc(OC(=O)c2ccccc2)cc2c1C(=O)C=CC2=O` was 56.4 µM.
Same read-out and setting: the figure for `Cc1cc(=O)n(-c2ccccc2C)c(C)n1` is greater than 100 µM.
Consider `COc1cc2c(c(OC)c1OC)-c1ccc(SC)c(=O)cc1C(CO)C2` (stereo unspecified), for which the GI50 is less than 0.01 µM and the TGI is greater than 100 µM.
For `CC1CCC(NC(=O)N(CCCl)N=O)CC1` (stereo unspecified) the same measures were 55 µM and 110 µM.
In the same order, the values of `CCC[CH2][Sn]1([CH2]CCC)[O]C(=O)c2cccnc2[O]1` are 2.65 µM and 10.6 µM.
As for `CCOc1ccccc1N1C(=O)C(=O)C(c2nc3ccccc3o2)C(=O)C1=O`, the TGI was greater than 100 µM.
The same measure, in the same setting: the value for `CCS(CC)(CC)CC1CCCC2=CCC(P(=O)(c3ccccc3)c3ccccc3)CC21` (stereo unspecified) was 29 µM.

A further assay relates to SW-620 colon. The assay is described as follows: inhibition of tumour cell growth, NCI panel, 48 h.
Consider `COc1c(C)c2c(c(O)c1C/C=C(\C)CCC(=O)O)C(=O)OC2`, for which the GI50 is 0.167 µM and the TGI is greater than 100 µM.
As for `Cc1cc(O)c(C(C)C)cc1S(=O)(=O)O` (tested in a mixture with another compound), the GI50 was 0.404 µM.
`O=[N+]([O-])c1cc(C(F)(F)F)cc([N+](=O)[O-])c1CCl` came in with a TGI of 1.63 µM.
Turning to `COc1cc(C[C@H]2c3cc(OC)c(OC)cc3CCN2C)c(Oc2cc3c(cc2OC)-c2c(OC)c(OC)cc4c2[C@H](C3)N(C)CC4)cc1OC`, the GI50 is 13.3 µM; the TGI was 22.6 µM and 32.5 µM.
`CCOC(=O)N1CCN(C=S)CC1` yielded a TGI greater than 100 µM.
In turn, `CCc1cc(C(=O)OC)cn1C(=N)c1ccc(Cl)cc1` returned a TGI greater than 100 µM.
On the same count and under the same terms, the value for `COc1cc(OC(=O)c2ccccc2)cc2c1C(=O)C=CC2=O` was 39.2 µM; that for `Cc1cc(=O)n(-c2ccccc2C)c(C)n1` was greater than 100 µM.
Take `COc1cc2c(c(OC)c1OC)-c1ccc(SC)c(=O)cc1C(CO)C2` (stereo unspecified): the GI50 is less than 0.01 µM and the TGI is greater than 100 µM.
For the compound `CC1CCC(NC(=O)N(CCCl)N=O)CC1` (stereo unspecified), the GI50 was 17.7 µM; the TGI was 37.4 µM and 71.5 µM.
`CCC[CH2][Sn]1([CH2]CCC)[O]C(=O)c2cccnc2[O]1`: the GI50 was 1.48 µM and the TGI was determined as 3.6 µM.
The compound `CCOc1ccccc1N1C(=O)C(=O)C(c2nc3ccccc3o2)C(=O)C1=O` displayed a TGI greater than 100 µM.
The compound `CCS(CC)(CC)CC1CCCC2=CCC(P(=O)(c3ccccc3)c3ccccc3)CC21` (stereo unspecified) displayed a TGI of 31.5 µM.

The test system of another assay is U251 CNS. The assay is described as follows: inhibition of tumour cell growth, NCI panel, 48 h.
In the case of `COc1c(C)c2c(c(O)c1C/C=C(\C)CCC(=O)O)C(=O)OC2`, the GI50 was 0.0905 µM and the TGI was greater than 100 µM.
Take `Cc1cc(O)c(C(C)C)cc1S(=O)(=O)O` (tested in a mixture with another compound): the GI50 is 0.368 µM.
As to `O=[N+]([O-])c1cc(C(F)(F)F)cc([N+](=O)[O-])c1CCl`, the TGI stood at 14.2 µM.
Take `COc1cc(C[C@H]2c3cc(OC)c(OC)cc3CCN2C)c(Oc2cc3c(cc2OC)-c2c(OC)c(OC)cc4c2[C@H](C3)N(C)CC4)cc1OC`: the GI50 was 10.7 µM; the TGI was 8.95 µM and 22.7 µM.
In turn, `CCOC(=O)N1CCN(C=S)CC1` gave a TGI greater than 100 µM.
For `CCc1cc(C(=O)OC)cn1C(=N)c1ccc(Cl)cc1`, the TGI is greater than 100 µM.
Still for that read-out and setting: the value for `COc1cc(OC(=O)c2ccccc2)cc2c1C(=O)C=CC2=O` was 38.2 µM; that for `Cc1cc(=O)n(-c2ccccc2C)c(C)n1` was greater than 100 µM.
Regarding `COc1cc2c(c(OC)c1OC)-c1ccc(SC)c(=O)cc1C(CO)C2` (stereo unspecified), the GI50 was less than 0.01 µM; the TGI is 0.728 µM and 0.111 µM.
In the case of `CC1CCC(NC(=O)N(CCCl)N=O)CC1` (stereo unspecified), the GI50 was 20.8 µM and the TGI was 65.9 µM.
Take `CCC[CH2][Sn]1([CH2]CCC)[O]C(=O)c2cccnc2[O]1`: the GI50 is 1.89 µM and the TGI was determined as 3.79 µM.
As for `CCOc1ccccc1N1C(=O)C(=O)C(c2nc3ccccc3o2)C(=O)C1=O`, the TGI is greater than 100 µM.
In the case of `CCS(CC)(CC)CC1CCCC2=CCC(P(=O)(c3ccccc3)c3ccccc3)CC21` (stereo unspecified), the TGI was found to be 23.1 µM.
